This assay concerns HIV-1 (IIIB) in MT-4 cells. The assay can be described thus: MT-4 HIV assay. Type of assay: cell-based. The conditions noted are these: Human immunodeficiency virus 1, MT4, 120 h. As to the method: Compounds were tested in a high-throughput 384-well assay format for their ability to inhibit the replication of HIV-1 (IIIB) in MT-4 cells. Compounds were serially diluted (1:3) in DMSO on 384-well polypropylene plates and further diluted 200-fold into complete RPMI media (10% FBS, 1% P/S) using the Biotek Micro Flow and Agilent ECHO acoustic dispenser. Each plate contained up to 8 test compounds, with negative (No Drug Control) and 5 uM AZT positive controls. MT-4 cells were pre-infected with 10 uL of either RPMI (mock-infected) or a fresh 1:250 dilution of an HIV-1 (IIIB) concentrated virus stock. Infected and uninfected MT-4 cells were further diluted in complete RPMI media and added to each plate using a Micro Flow dispenser. After 5 days incubation in a humidified and temperature controlled incubator (37° C.), Cell Titer Glo (Promega) was added to the assay plates to quantify the amount of luciferase.

The mark [1] stands for this setting: HIV-1 (IIIB), MT-4 cells, 5 days, Cell Titer Glo, read-out: EC50.

The structures appear in SMILES notation. Like-named read-outs stand apart in the source and are kept apart here.

One may read the EC50 as the concentration that produces a half-maximal response.

`COC(=O)N[C@H](C(=O)N[C@@H](Cc1ccc(C#Cc2ccc(N3C[C@H]4C[C@@H]3CN4C3COC3)nc2)cc1)[C@@H](O)CN(Cc1c(F)cc(-c2nnc(C3CC3)s2)cc1F)NC(=O)[C@@H](NC(=O)OC)C(C)(C)C(F)(F)F)C(C)(C)C(F)(F)F` [Example 27, Methyl ((5S,8S,9S,14S)-11-(4-(5-cyclopropyl-1,3,4-thiadiazol-2-yl)-2,6-difluorobenzyl)-16,16,16-trifluoro-9-hydroxy-15,15-dimethyl-8-(4-((6-((1R,4R)-5-(oxetan-3-yl)-2,5-diazabicyclo[2.2.1]heptan-2-yl)pyridin-3-yl)ethynyl)benzyl)-3,6,13-trioxo-5-(1,1,1-trifluoro-2-methylpropan-2-yl)-2-oxa-4,7,11,12-tetraazahexadecan-14-yl)carbamate] returned an EC50 of 3.5 nM.

Take `COC(=O)N[C@H](C(=O)N[C@@H](Cc1ccc(C#Cc2ccc(N3C[C@H]4C[C@@H]3CN4C3COC3)nc2)cc1)[C@@H](O)CN(Cc1ccc(-c2ccn(C3CC3)n2)cc1)NC(=O)[C@@H](NC(=O)OC)C(C)(C)C(F)(F)F)C(C)(C)C(F)(F)F` [Example 28, Methyl ((5S,8S,9S,14S)-11-(4-(1-cyclopropyl-1H-pyrazol-3-yl)benzyl)-16,16,16-trifluoro-9-hydroxy-15,15-dimethyl-8-(4-((6-((1R,4R)-5-(oxetan-3-yl)-2,5-diazabicyclo[2.2.1]heptan-2-yl)pyridin-3-yl)ethynyl)benzyl)-3,6,13-trioxo-5-(1,1,1-trifluoro-2-methylpropan-2-yl)-2-oxa-4,7,11,12-tetraazahexadecan-14-yl)carbamate]: the EC50 under setting [1] was determined as 4.56 nM.

As to `COC(=O)N[C@H](C(=O)N[C@@H](Cc1ccc(C#Cc2ccc(N3C[C@H]4C[C@@H]3CN4C3COC3)nc2)cc1)[C@@H](O)CN(Cc1ccc(-c2ccn(C(F)F)n2)cc1)NC(=O)[C@@H](NC(=O)OC)C(C)(C)C(F)(F)F)C(C)(C)C(F)(F)F` [Example 29, Methyl ((5S,8S,9S,14S)-11-(4-(1-(difluoromethyl)-1H-pyrazol-3-yl)benzyl)-16,16,16-trifluoro-9-hydroxy-15,15-dimethyl-8-(4-((6-((1R,4R)-5-(oxetan-3-yl)-2,5-diazabicyclo [2.2.1]heptan-2-yl)pyridin-3-yl)ethynyl)benzyl)-3,6,13-trioxo-5-(1,1,1-trifluoro-2-methylpropan-2-yl)-2-oxa-4,7,11,12-tetraazahexadecan-14-yl)carbamate], the EC50 under setting [1] is 4.02 nM.

Turning to `COC(=O)N[C@H](C(=O)N[C@@H](Cc1ccc(C#Cc2cnc(N3C[C@H]4C[C@@H]3CN4C3COC3)nc2)cc1)[C@@H](O)CN(Cc1ccc(-c2ccn(C3CC3)n2)cc1)NC(=O)[C@@H](NC(=O)OC)C(C)(C)C(F)(F)F)C(C)(C)C(F)(F)F` [Example 30, methyl ((5S,8S,9S,14S)-11-(4-(1-cyclopropyl-1H-pyrazol-3-yl)benzyl)-16,16,16-trifluoro-9-hydroxy-15,15-dimethyl-8-(4-((2-((1R,4R)-5-(oxetan-3-yl)-2,5-diazabicyclo[2.2.1]heptan-2-yl)pyrimidin-5-yl)ethynyl)benzyl)-3,6,13-trioxo-5-(1,1,1-trifluoro-2-methylpropan-2-yl)-2-oxa-4,7,11,12-tetraazahexadecan-14-yl)carbamate], the EC50 under setting [1] turned out to be 4.44 nM.

For `COC(=O)N[C@H](C(=O)N[C@@H](Cc1ccc(C#Cc2cnc(N3CC4CCC(C3)N4C3COC3)nc2)cc1)[C@@H](O)CN(Cc1ccc(-c2ccn(C3CC3)n2)cc1)NC(=O)[C@@H](NC(=O)OC)C(C)(C)C(F)(F)F)C(C)(C)C(F)(F)F` [Example 33, Methyl ((5S,8S,9S,14S)-11-(4-(1-cyclopropyl-1H-pyrazol-3-yl)benzyl)-16,16,16-trifluoro-9-hydroxy-15,15-dimethyl-8-(4-((2-(8-(oxetan-3-yl)-3,8-diazabicyclo [3.2.1]octan-3-yl)pyrimidin-5-yl)ethynyl)benzyl)-3,6,13-trioxo-5-(1,1,1-trifluoro-2-methylpropan-2-yl)-2-oxa-4,7,11,12-tetraazahexadecan-14-yl)carbamate], the concentration for a half-maximal effect (EC50) under setting [1] worked out at 4.71 nM.
